# Entries after “also recorded” stand apart in the source; their conditions may differ.
# Assays:
# NIH-3T3 cells = assay: Transwell cell migration assay; type: cell-based, mouse; details: wild-type (Neo) and HDAC6-overexpressing cells, 22 h; tubacin 2-20 μM, niltubacin 20 μM
# Procedure: For Transwell migration assays, wild-type or HDAC6 overexpressing NIH-3T3 cells were seeded (150,000 cells/well) in the upper chamber (uncoated polycarbonate membrane, 6.5 mm, 8 μm) in DMEM+ media with compounds added as indicated. After incubation (22 hours), non-migrated cells were removed using cotton swabs and remaining cells stained in Harris Hematoxylin solution. For each treatment, cells within a region (spanning the maximum diameter) of three separate membranes were counted under low magnification on a Leitz Laborlux microscope. For DMSO treatments the average count was ˜600 cells/region. Images were obtained using a Hitachi HV-C12 CCD camera.
# [1] = tested on: mouse embryonic stem cells; assay: genome-wide transcriptional profiling (U74Av2 chip); type: cell-based; details: TSA 300 nM, tubacin 2 μM
# Procedure: Gene expression analysis of tubacin, TSA, and DMSO-treated mouse embryonic stem cells were performed according to the Affymetrix protocol using an U74Av2 chip as described in full (K. M. Koeller et al., Chemistry & Biology, 10 (5) (2003) pp. 397-410). Present calls were determined by accompanying software and data analysis, including array normalization and clustering, performed using dChip software [C. Li and W. H. Wong, Genome Biol. 2, 32 (2001); and E. E. Schadt, C. Li, B. Ellis and W. H. Wong, J. Cell Biochem. Suppl. 37, 120 (2001)].
# histone deacetylation = assay: acetylated lysine / acetylated histone in cells (AcLysine cytoblot, immunofluorescence, Western blot); type: cell-based, human; details: A549 (also BS-C-1) cells, tubacin, niltubacin 2 μM, histacin 20 μM, library ~2-5 μM, 18 h
# Procedure: A549 cells were seeded at a density of 4,000 cells/50 μl in DMEM+ in white tissue culture-treated 384-well plates (Nalge Nunc) using a Multidrop 384 liquid dispenser (Labsystems). Library small molecules were pinned twice (100-150 nl/pin) from ˜1 mM stock solutions (DMSO) and incubated for 18 hours. For the ITSA1+AcTubulin assay, ITSA1 (50 μM) was added four hours after pin-transfer of library molecules. Media was aspirated with a 16-channel wand. For the acetylated α-tubulin cytoblot (AcTubulin), 40 μl/well of fixation solution (3.7% formaldehyde (1:10 from 37% stock) in Tris-buffered saline (TBS, 0.15 M NaCl, 0.02 M Tris-Cl, pH 7.4) was added and plates incubated for twenty minutes at room temperature. After aspiration, 30 μl 100% methanol (−20° C.) was added and incubated for five minutes at room temperature. After aspirating and washing three times with 90 μl of antibody dilution buffer (ADB, TBS/2% bovine serum albumin, 0.1% TritonX-100) the wells were blocked for twenty minutes in ADB. After aspirating, 20 μl/well of ADB containing anti-acetylated α-tubulin antibody (mouse; 1:1000) and anti-mouse IgG horseradish peroxidase (HRP)-conjugated antibody (1:750) was added and incubated overnight (4° C.). For the anti-acetyl lysine cytoblot (AcLysine), 40 μl/well of fixation solution (95% ethanol/5% acetic acid, −20° C.) was added and plates incubated for five minutes at room temperature. Wells were aspirated, washed, and blocked in ADB as for the AcTubulin protocol. After aspirating, 20 μl/well of ADB containing anti-acetylated lysine (rabbit; 1:375) and anti-rabbit IgG-HRP conjugated antibody (1:750) was added and incubated overnight (4° C.). For the anti-acetylated histone H3 (AcHistH3) and anti-acetylated histone H4 (AcHistH4) cytoblots, cells were fixed, washed, and blocked in ADB as for the AcLysine cytoblot. After aspirating, 20 μl/well of ADB containing anti-acetylated histone H3 antibody (rabbit, 1:500) or anti-acetylated histone H4 antibody (rabbit, 1:500) was added and incubated for two hours at room temperature. Wells were aspirated and washed twice with 80 μl of ADB. After aspirating, 20 μl/well of ADB containing anti-rabbit IgG-HRP conjugated antibody (1:1000) was added and incubated for two hours (room temperature). For the AcTubulin and AcLysine assays, plates were washed three times with TBS before adding 20 μl/well of enhanced chemiluminescent (ECL) mixture. For the AcHistH3 and AcHistH4 assays, plates were washed three times with 80 μl TBS with 1% Triton X-100 and once with 80 μl TBS before adding 20 μl/well of ECL mixture. Plates were read on an Analyst plate reader (LJL Biosystems) with an integration time of 0.1 seconds.
# 1,3-dioxanes from single polystyrene macrobeads were prepared as 1-2 mM stock solutions in DMSO as described [Hubbert, C., Guardiola, A., Shao, R., Kawaguchi, Y., Ito, A., Nixon, A., Yoshida, M., Wang, X. F., and Yao, T. P. (2002). HDAC6 is a microtubule-associated deacetylase. Nature 417, 455-458]. Bead decoding and structure determination were as described [See for example, Hubbert, C., Guardiola, A., Shao, R., Kawaguchi, Y., Ito, A., Nixon, A., Yoshida, M., Wang, X. F., and Yao, T. P. (2002). HDAC6 is a microtubule-associated deacetylase. Nature 417, 455-458; and Piperno, G., LeDizet, M., and Chang, X. J. (1987). Microtubules containing acetylated alpha-tubulin in mammalian cells in culture. J. Cell Biol. 104, 289-302]. Small molecules (˜2-5 μM) of interest were retested using a sample from the plate of stock solutions by fluorescence microscopy and comparison to the effects of trichostatin (300 nM to 1 μM).
# A549 cells were seeded at a density of 50,000/200 μl in DMEM+ on the surface of glass coverslips on top of Parafilm in a 10 cm dish and allowed to attach overnight. For detection of acetylated α-tubulin, cells were permeabilized and fixed with 100 mM K-PIPES, pH 6.8, 10 mM EGTA, 1 mM MgCl2, 0.2% triton X-100, 0.2% glutaraldehyde for fifteen minutes. […]
Structure (SMILES),cell migration (NIH-3T3 cells),number of genes with altered expression above a 1.3-fold threshold [1],effect on histone deacetylation / lysine or histone acetylation in cells (histone deacetylation),effect on histone deacetylation / lysine or histone acetylation in cells (histone deacetylation; listed as 415 N3),effect on histone deacetylation / lysine or histone acetylation in cells (histone deacetylation; listed as JCWII114)
O=C(CCCCCCC(=O)Nc1ccc([C@@H]2OC(c3ccc(CO)cc3)C[C@H](CSc3nc(-c4ccccc4)c(-c4ccccc4)o3)O2)cc1)NO (stereo partly shown) [tubacin],inhibited the migration of wild-type (Neo) NIH-3T3 cells; also recorded: inhibited the migration of both wild-type and HDAC6-overexpressing cells,no genes showed a significant alteration in expression,did not affect histone acetylation,no effect on lysine acetylation,no visible effect on histone deacetylation
"CC(/C=C/C(=O)NO)=C\[C@@H](C)C(=O)c1ccc(N(C)C)cc1 [TSA, trichostatin A, reference compound]",–,232 genes,an inhibitor of both α-tubulin and histone deacetylation,–,–

# Reference: patent publication US8178579B2, “Dioxanes and uses thereof” (President and Fellows of Harvard College, priority 2001, dated 2012)
